Tests used:
Assay type in all cases: in vivo
Maize [1] = test: Post-emergence test/greenhouse; conditions: Table C, after three weeks
Protocol: (§1) To produce a suitable preparation of active compound, 1 part by weight of active compound is mixed with the stated amount of solvent, the stated amount of emulsifier is added and the concentrate is diluted with water to the desired concentration.
(§2) Test plants which have a height of 5-15 cm are sprayed with the preparation of active compound in such a way as to apply the particular amounts of active compound desired per unit area. After three weeks, the degree of damage to the plants is rated in % damage in comparison to the development of the untreated control.
(§3) 0%=no action (like intreated control)

Amaranthus [2] = test: Post-emergence test/greenhouse; conditions: Table C, after three weeks
Protocol: as §1, §2, §3

Chenopodium [3] = test: Post-emergence test/greenhouse; conditions: Table C, after three weeks
Protocol: as §1, §2, §3

Abuthilon [4] = test: Post-emergence test/greenhouse; conditions: Table C, after three weeks
Protocol: as §1, §2, §3

Veronica = test: Post-emergence test/greenhouse; conditions: Table C, after three weeks
Protocol: as §1, §2, §3

Wheat [5] = test: Post-emergence test/greenhouse; conditions: Table C, after three weeks
Protocol: as §1, §2, §3

Solanum [6] = test: Post-emergence test/greenhouse; conditions: Table C, after three weeks
Protocol: as §1, §2, §3

Maize [7] = test: Pre-emergence test/greenhouse; conditions: Table B, after three weeks
Protocol: as §1
(§4) Seeds of the test plants are sown in normal soil and, after 24 hours, watered with the preparation of active compound. It is expedient to keep constant the amount of water per unit area. The concentration of the active compound in the preparation is of no importance, only the amount of active compound applied per unit area being decisive. After three weeks, the degree of damage to the plants is rated in % damage in comparison to the development of the untreated control. The figures denote:
(§5) 0%=no action (like untreated control)

Amaranthus [8] = test: Pre-emergence test/greenhouse; conditions: Table B, after three weeks
Protocol: as §1, §4, §5

Chenopodium [9] = test: Pre-emergence test/greenhouse; conditions: Table B, after three weeks
Protocol: as §1, §4, §5

Abuthilon [10] = test: Pre-emergence test/greenhouse; conditions: Table B, after three weeks
Protocol: as §1, §4, §5

Portulaca = test: Pre-emergence test/greenhouse; conditions: Table B, after three weeks
Protocol: as §1, §4, §5

Matricaria = test: Pre-emergence test/greenhouse; conditions: Table B, after three weeks
Protocol: as §1, §4, §5

Wheat [11] = test: Pre-emergence test/greenhouse; conditions: Table B, after three weeks
Protocol: as §1, §4, §5

Solanum [12] = test: Pre-emergence test/greenhouse; conditions: Table B, after three weeks
Protocol: as §1, §4, §5

SMILES: CC(C)Oc1cc(-n2nc3n(c2=O)CCCC3)c(F)cc1C(N)=S [Example 17]
- degree of damage, Maize (Maize [1]; 8 g/ha): 10%
- degree of damage, Amaranthus (Amaranthus [2]; 8 g/ha): 100%
- degree of damage, Chenopodium (Chenopodium [3]; 8 g/ha): 95%
- degree of damage, Abuthilon (Abuthilon [4]; 8 g/ha): 100%
- degree of damage, Veronica (Veronica; 8 g/ha): 100%
- degree of damage, Wheat (Wheat [5]; 8 g/ha): 10%
- degree of damage, Solanum (Solanum [6]; 8 g/ha): 100%
- degree of damage, Maize (Maize [7]; 30 g/ha): 0%
- degree of damage, Amaranthus (Amaranthus [8]; 30 g/ha): 100%
- degree of damage, Chenopodium (Chenopodium [9]; 30 g/ha): 100%
- degree of damage, Abuthilon (Abuthilon [10]; 30 g/ha): 100%
- degree of damage, Portulaca (Portulaca; 30 g/ha): 100%
- degree of damage, Matricaria (Matricaria; 30 g/ha): 100%
- degree of damage, Wheat (Wheat [11]; 30 g/ha): 0%
- degree of damage, Solanum (Solanum [12]; 30 g/ha): 100%

SMILES: CCS(=O)(=O)Nc1cc(-n2c(=O)cc(C(F)(F)F)n(C)c2=S)c(F)cc1C(N)=S [Example 21]
- degree of damage, Maize (Maize [1]; 4 g/ha): 60%
- degree of damage, Amaranthus (Amaranthus [2]; 4 g/ha): 100%
- degree of damage, Chenopodium (Chenopodium [3]; 4 g/ha): 70%
- degree of damage, Abuthilon (Abuthilon [4]; 4 g/ha): 90%
- degree of damage, Veronica (Veronica; 4 g/ha): 100%
- degree of damage, Wheat (Wheat [5]; 4 g/ha): 5%
- degree of damage, Solanum (Solanum [6]; 4 g/ha): 100%
- degree of damage, Maize (Maize [7]; 60 g/ha): 0%
- degree of damage, Amaranthus (Amaranthus [8]; 60 g/ha): 100%
- degree of damage, Chenopodium (Chenopodium [9]; 60 g/ha): 100%
- degree of damage, Abuthilon (Abuthilon [10]; 60 g/ha): 100%
- degree of damage, Portulaca (Portulaca; 60 g/ha): 100%
- degree of damage, Matricaria (Matricaria; 60 g/ha): 100%
- degree of damage, Wheat (Wheat [11]; 60 g/ha): 0%
- degree of damage, Solanum (Solanum [12]; 60 g/ha): 100%

SMILES: CCS(=O)(=O)Nc1cc(N2C(=O)C(C)=C(C)C2=O)c(F)cc1C(N)=S [Example 22]
- degree of damage, Maize (Maize [1]; 30 g/ha): 0%
- degree of damage, Amaranthus (Amaranthus [2]; 30 g/ha): 100%
- degree of damage, Chenopodium (Chenopodium [3]; 30 g/ha): 40%
- degree of damage, Abuthilon (Abuthilon [4]; 30 g/ha): 100%
- degree of damage, Veronica (Veronica; 30 g/ha): 20%
- degree of damage, Wheat (Wheat [5]; 30 g/ha): 15%
- degree of damage, Solanum (Solanum [6]; 30 g/ha): 100%
- degree of damage, Maize (Maize [7]; 250 g/ha): 20%
- degree of damage, Amaranthus (Amaranthus [8]; 250 g/ha): 100%
- degree of damage, Chenopodium (Chenopodium [9]; 250 g/ha): 100%
- degree of damage, Abuthilon (Abuthilon [10]; 250 g/ha): 100%
- degree of damage, Portulaca (Portulaca; 250 g/ha): 95%
- degree of damage, Matricaria (Matricaria; 250 g/ha): 100%
- degree of damage, Wheat (Wheat [11]; 250 g/ha): 0%
- degree of damage, Solanum (Solanum [12]; 250 g/ha): 100%

SMILES: CCS(=O)(=O)Nc1cc(N2C(=O)C3=C(CCCC3)C2=O)c(F)cc1C(N)=S [Example 23]
- degree of damage, Maize (Maize [1]; 30 g/ha): 50%
- degree of damage, Chenopodium (Chenopodium [3]; 30 g/ha): 90%
- degree of damage, Abuthilon (Abuthilon [4]; 30 g/ha): 95%
- degree of damage, Veronica (Veronica; 30 g/ha): 100%
- degree of damage, Wheat (Wheat [5]; 30 g/ha): 0%
- degree of damage, Solanum (Solanum [6]; 30 g/ha): 100%
- degree of damage, Maize (Maize [7]; 60 g/ha): 0%
- degree of damage, Amaranthus (Amaranthus [8]; 60 g/ha): 70%
- degree of damage, Chenopodium (Chenopodium [9]; 60 g/ha): 95%
- degree of damage, Abuthilon (Abuthilon [10]; 60 g/ha): 95%
- degree of damage, Portulaca (Portulaca; 60 g/ha): 95%
- degree of damage, Matricaria (Matricaria; 60 g/ha): 100%
- degree of damage, Wheat (Wheat [11]; 60 g/ha): 0%
- degree of damage, Solanum (Solanum [12]; 60 g/ha): 70%

SMILES: Cn1c(C(F)(F)F)cc(=O)n(-c2cc(NS(C)(=O)=O)c(C(N)=S)cc2F)c1=S [Example 26]
- degree of damage, Maize (Maize [1]; 15 g/ha): 30%
- degree of damage, Amaranthus (Amaranthus [2]; 15 g/ha): 90%
- degree of damage, Chenopodium (Chenopodium [3]; 15 g/ha): 50%
- degree of damage, Abuthilon (Abuthilon [4]; 15 g/ha): 50%
- degree of damage, Veronica (Veronica; 15 g/ha): 100%
- degree of damage, Wheat (Wheat [5]; 15 g/ha): 0%
- degree of damage, Solanum (Solanum [6]; 15 g/ha): 50%
- degree of damage, Maize (Maize [7]; 60 g/ha): 0%
- degree of damage, Amaranthus (Amaranthus [8]; 60 g/ha): 80%
- degree of damage, Chenopodium (Chenopodium [9]; 60 g/ha): 100%
- degree of damage, Abuthilon (Abuthilon [10]; 60 g/ha): 100%
- degree of damage, Portulaca (Portulaca; 60 g/ha): 100%
- degree of damage, Matricaria (Matricaria; 60 g/ha): 100%
- degree of damage, Wheat (Wheat [11]; 60 g/ha): 0%
- degree of damage, Solanum (Solanum [12]; 60 g/ha): 90%

SMILES: C#CC(C)Oc1cc(-n2nc(C(F)(F)F)n(C)c2=O)c(F)cc1C(N)=S (stereo not drawn) [Example 32]
- degree of damage, Maize (Maize [1]; 4 g/ha): 30%
- degree of damage, Amaranthus (Amaranthus [2]; 4 g/ha): 100%
- degree of damage, Chenopodium (Chenopodium [3]; 4 g/ha): 95%
- degree of damage, Abuthilon (Abuthilon [4]; 4 g/ha): 100%
- degree of damage, Veronica (Veronica; 4 g/ha): 100%
- degree of damage, Wheat (Wheat [5]; 4 g/ha): 15%
- degree of damage, Solanum (Solanum [6]; 4 g/ha): 100%
- degree of damage, Maize (Maize [7]; 30 g/ha): 0%
- degree of damage, Amaranthus (Amaranthus [8]; 30 g/ha): 100%
- degree of damage, Chenopodium (Chenopodium [9]; 30 g/ha): 100%
- degree of damage, Portulaca (Portulaca; 30 g/ha): 95%
- degree of damage, Matricaria (Matricaria; 30 g/ha): 100%
- degree of damage, Wheat (Wheat [11]; 30 g/ha): 10%
- degree of damage, Solanum (Solanum [12]; 30 g/ha): 100%

SMILES: COCCOCCOc1cc(-n2nc(C)n(C(F)F)c2=O)c(F)cc1C(N)=S [Example 51]
- degree of damage, Maize (Maize [1]; 15 g/ha): 60%
- degree of damage, Amaranthus (Amaranthus [2]; 15 g/ha): 100%
- degree of damage, Chenopodium (Chenopodium [3]; 15 g/ha): 70%
- degree of damage, Abuthilon (Abuthilon [4]; 15 g/ha): 100%
- degree of damage, Veronica (Veronica; 15 g/ha): 100%
- degree of damage, Wheat (Wheat [5]; 15 g/ha): 15%
- degree of damage, Solanum (Solanum [6]; 15 g/ha): 100%
- degree of damage, Maize (Maize [7]; 30 g/ha): 20%
- degree of damage, Chenopodium (Chenopodium [9]; 30 g/ha): 100%
- degree of damage, Abuthilon (Abuthilon [10]; 30 g/ha): 100%
- degree of damage, Portulaca (Portulaca; 30 g/ha): 100%
- degree of damage, Matricaria (Matricaria; 30 g/ha): 95%
- degree of damage, Wheat (Wheat [11]; 30 g/ha): 0%
- degree of damage, Solanum (Solanum [12]; 30 g/ha): 100%
